Assay: pH dependence of ketone-hydrate equilibrium (31P NMR, absorbance 420 nm)
Assay type: physicochemical
Description: The ketone 13a and hydrate forms 13b are simultaneously detectable by ^31P, and also via the visible absorbance (420 nm) of the ketone chromophore (yellow). At low pH, the hydrate form 13b predominates, the phosphorus NMR peak shifting from −2 to 15 ppm. The reaction is reversible, the ketone reforming as the pH is increased. The pH at which 50% of the ketone is transferred to its hydrate form (‘pK’) is 2.2 (rt, 10^−7M in D2O). This unequivocally coincides with the protonation of the phosphonate function. Upon addition of MgCl2, the apparent ‘pK’ of the equilibrium shifts by nearly 2 pH units towards left to reach 4.2 (FIG. 4).
We, report here synthesis and characterization of the first example of a new class of nucleotide analog, in which the α,β-phosphoric anhydride oxygen of the 5′-diphosphate moiety is replaced by a reactive carbonyl group: the carbonylbisphosphonate analog of 3′-azido-3′desoxythymidine 5′-diphosphate, 13. The structures of 13 and its diazomethylenebisphosphonate precursor 12 were confirmed by ^1H, ^13C and ^31P NMR, and high-resolution mass spectrometry. The ketone and hydrate forms of 13 are simultaneously detectable by ^31P, and also via the visible absorbance (420 nm) of the ketone chromophore. At low pH, the hydrate form predominates, the phosphorus NMR peak shifting from −2 to 15 ppm. The reaction is reversible, the ketone reforming as the pH is increased. Addition of Mg^2+ shifts the ‘pK’ of the equilibrium by nearly 2 pH units. (See FIG. 4).

Cc1cn([C@H]2C[C@H](N=[N+]=[N-])[C@@H](COP(=O)(O)C(=O)P(=O)(O)O)O2)c(=O)[nH]c1=O [Compound 13a, 3′-Azido-3′-Deoxythymidine 5′-Carbonylbisphosphonate]
shift of the 'pK' of the equilibrium on addition of Mg2+ (addition of MgCl2 / Mg^2+): ~2 pH units
pH at which 50% of the ketone is transferred to its hydrate form ('pK') (rt, 10^−7M in D2O, no Mg): 2.2
apparent 'pK' of the ketone-hydrate equilibrium (upon addition of MgCl2): 4.2

From patent US7462733B2, “Preparation and use of α-keto phosphonates” (University of Southern California, priority 2001, dated 2008)
